Laboratory results taken from US9469650B2, “Melampomagnolide B derivatives” (BOARD OF TRUSTEES OF THE UNIVERSITY OF ARKANSAS, priority 2013, dated 2016).
Read-outs that look alike come from different tables or passages of the source.

Legend:
NCI-H460 = experiment: panel of 60 human tumor cell lines, growth inhibition (Non-Small Cell Lung Cancer); conditions: Homo sapiens
MOLT-4 = experiment: panel of 60 human tumor cell lines, growth inhibition (Leukemia); conditions: Homo sapiens
LOX IMVI = experiment: panel of 60 human tumor cell lines, growth inhibition (Melanoma); conditions: Homo sapiens
MDA-MB-231/ATCC = experiment: panel of 60 human tumor cell lines, growth inhibition (Breast Cancer); conditions: Homo sapiens
SN12C = experiment: panel of 60 human tumor cell lines, growth inhibition (Renal Cancer); conditions: Homo sapiens
SK-MEL-5 = experiment: panel of 60 human tumor cell lines, growth inhibition (Melanoma); conditions: Homo sapiens
NCI-H226 = experiment: panel of 60 human tumor cell lines, growth inhibition (Non-Small Cell Lung Cancer); conditions: Homo sapiens
CAKI-1 = experiment: panel of 60 human tumor cell lines, growth inhibition (Renal Cancer); conditions: Homo sapiens
SK-OV-3 = experiment: panel of 60 human tumor cell lines, growth inhibition (Ovarian Cancer); conditions: Homo sapiens
HCC-2998 = experiment: panel of 60 human tumor cell lines, growth inhibition (Colon Cancer); conditions: Homo sapiens
HOP-62 = experiment: panel of 60 human tumor cell lines, growth inhibition (Non-Small Cell Lung Cancer); conditions: Homo sapiens
RXF 393 = experiment: panel of 60 human tumor cell lines, growth inhibition (Renal Cancer); conditions: Homo sapiens
HCT-15 = experiment: panel of 60 human tumor cell lines, growth inhibition (Colon Cancer); conditions: Homo sapiens
HOP-92 = experiment: panel of 60 human tumor cell lines, growth inhibition (Non-Small Cell Lung Cancer); conditions: Homo sapiens
SK-MEL-2 = experiment: panel of 60 human tumor cell lines, growth inhibition (Melanoma); conditions: Homo sapiens
MCF7 = experiment: panel of 60 human tumor cell lines, growth inhibition (Breast Cancer); conditions: Homo sapiens
DU-145 = experiment: panel of 60 human tumor cell lines, growth inhibition (Prostate Cancer); conditions: Homo sapiens
CCRF-CEM = experiment: panel of 60 human tumor cell lines, growth inhibition (Leukemia); conditions: Homo sapiens

C=C1C(=O)O[C@H]2[C@H]1CC/C(COC(=O)OCCN(C)C)=C\CC[C@@]1(C)O[C@@H]21 [JVM 2-35]
GI50 (NCI-H460; NCI-H460): 20.7 µM
CC50 (NCI-H460; NCI-H460, read-out: LC50): > 100 µM
IC (TGI) (NCI-H460; NCI-H460, read-out: TGI): 52.1 µM
GI50 (MOLT-4; MOLT-4): 5.5 µM
CC50 (MOLT-4; MOLT-4, read-out: LC50): > 100 µM
IC (TGI) (MOLT-4; MOLT-4, read-out: TGI): 26.1 µM
GI50 (LOX IMVI; NCI five dose): 5.16 µM
CC50 (LOX IMVI; read-out: LC50): 47.5 µM
IC (TGI) (LOX IMVI; read-out: TGI): 18.2 µM
GI50 (MDA-MB-231/ATCC; MDA-MB-231): 5.86 µM
CC50 (MDA-MB-231/ATCC; MDA-MB-231, read-out: LC50): 56.9 µM
IC (TGI) (MDA-MB-231/ATCC; MDA-MB-231, read-out: TGI): 21.3 µM
GI50 (SN12C): 13.2 µM
CC50 (SN12C; read-out: LC50): > 100 µM
IC (TGI) (SN12C; read-out: TGI): 39.7 µM
GI50 (SK-MEL-5; SK-MEL-5): 11.5 µM
CC50 (SK-MEL-5; SK-MEL-5, read-out: LC50): 53.8 µM
IC (TGI) (SK-MEL-5; SK-MEL-5, read-out: TGI): 24.9 µM
GI50 (NCI-H226; NCI-H226): 11.9 µM
CC50 (NCI-H226; NCI-H226, read-out: LC50): 89.9 µM
IC (TGI) (NCI-H226; NCI-H226, read-out: TGI): 32.7 µM
Percent Growth (HL-60(TB); Log10 Concentration −4.0): −52%
Percent Growth (HL-60(TB); Log10 Concentration −5.0): −17%
Percent Growth (HL-60(TB); Log10 Concentration −6.0): 72%
Percent Growth (HL-60(TB); Log10 Concentration −7.0): 83%
Percent Growth (HL-60(TB); Log10 Concentration −8.0): 94%
GI50 (CAKI-1; CAKI-1): 3.22 µM
CC50 (CAKI-1; CAKI-1, read-out: LC50): 39.9 µM
IC (TGI) (CAKI-1; CAKI-1, read-out: TGI): 15.6 µM
GI50 (SK-OV-3; SK-OV-3): 27.5 µM
CC50 (SK-OV-3; SK-OV-3, read-out: LC50): > 100 µM
IC (TGI) (SK-OV-3; SK-OV-3, read-out: TGI): 83.3 µM
GI50 (HCC-2998; HCC 2998): 15.8 µM
CC50 (HCC-2998; HCC 2998, read-out: LC50): 61.9 µM
IC (TGI) (HCC-2998; HCC 2998, read-out: TGI): 31.3 µM
GI50 (HOP-62; HOP-62): 22.9 µM
CC50 (HOP-62; HOP-62, read-out: LC50): > 100 µM
IC (TGI) (HOP-62; HOP-62, read-out: TGI): 82.1 µM
GI50 (RXF 393; RXF 393, RXF 393, NCI five dose): 3.23 µM
CC50 (RXF 393; RXF 393, read-out: LC50): 45.8 µM
IC (TGI) (RXF 393; RXF 393, read-out: TGI): 13.7 µM
GI50 (HCT-15; HCT-15): 2.78 µM
CC50 (HCT-15; HCT-15, read-out: LC50): 44.3 µM
IC (TGI) (HCT-15; HCT-15, read-out: TGI): 12.8 µM
GI50 (HOP-92; HOP-92, HOP-92, NCI five dose): 2.69 µM
CC50 (HOP-92; HOP-92, read-out: LC50): 35.8 µM
IC (TGI) (HOP-92; HOP-92, read-out: TGI): 10.1 µM
GI50 (SK-MEL-2; SK-MEL-2): 15.2 µM
CC50 (SK-MEL-2; SK-MEL-2, read-out: LC50): 86.6 µM
IC (TGI) (SK-MEL-2; SK-MEL-2, read-out: TGI): 36.3 µM
GI50 (MCF7; MCF7, MCF7, NCI five dose): 2.92 µM
CC50 (MCF7; MCF7, read-out: LC50): 56.3 µM
IC (TGI) (MCF7; MCF7, read-out: TGI): 13 µM
GI50 (DU-145; DU-145): 3.59 µM
CC50 (DU-145; DU-145, read-out: LC50): 37.7 µM
IC (TGI) (DU-145; DU-145, read-out: TGI): 13.2 µM
GI50 (CCRF-CEM; NCI five dose): 2.1 µM
CC50 (CCRF-CEM; read-out: LC50): > 100 µM
IC (TGI) (CCRF-CEM; read-out: TGI): 6.14 µM
